Experimental data: patent US11149047B2, “Aryl imidazoles for treatment of cancer” (Aptose Biosciences Inc., priority 2017, dated 2021)

Key:
[1] = tested on: G4 sequences (telomere, MYC, KIT, rRNA oligos); test: Modified FRET assay, melting of G-quadruplex oligos; type: binding, human; details: FIG. 13C; COMPOUND I data at 6-hour incubation
Experimental: FRET assay and data analysis was performed as described previously and modified by using dual labeled (5′ FAM-3′ BHQ1) single-stranded oligos. Melting temperature of each oligo was assessed in the presence of vehicle DMSO or escalating concentrations of COMPOUND I, Fe(COMPOUND I)3, CX-5461, or TMPyP4 using a Roche LightCycler 96 [at 37° C. for 300 seconds followed by temperature increased in […] intervals up to 91° C. (25 steps) with 300-second total incubation time at each temperature]. Drug and oligo reaction mixes were analyzed immediately or incubated for 6 hours at room temperature and then analyzed. […] COMPOUND I data are presented for 6-hour time point.
The ability of COMPOUND I (parental monomeric form of the drug) and Fe(COMPOUND I)3 to bind and stabilize G4 sequences using a modified FRET assay was evaluated (FIGS. 21 and 22). TMPyP4, a well-known G4 ligand, and CX-5461, a clinical stage molecule recently reported to have G4-binding properties, were utilized as controls to assess the specificity of COMPOUND I and Fe(COMPOUND I)3 for G4-stabilizing activity.

Raji cells = test: Cytotoxicity study, MTS cell proliferation assay, 5 days; type: cell-based, human; details: concentrations up to 300 nM, FIG. 5C
Experimental: (§1) The human Burkitt lymphoma cell line Raji was obtained from the American Type Tissue Culture Collection and cultured in RPMI 1640 medium (ATCC) supplemented with 10% fetal bovine serum (ATCC,) at 37° C., 5% CO2. The COMPOUND I-resistant Raji (Raji/COMPOUND IR) cell line was generated by exposure to progressively higher concentrations of COMPOUND I over a period of 6 months. CAOV3 cells were obtained from ATCC and cultured in complete DMEM supplemented with 10% fetal bovine serum. MCF7 vector controlled and BRCA1 shRNA subclones were obtained from Dr. Simon Powell (Memorial Sloan-Kettering Cancer Center) and cultured in EMBM with 10% fetal bovine serum. MCF10A and hTERT-IMEC clones were obtained from Dr. Ben Ho Park (Johns Hopkins University). HCT116 BRCA2^+/+ cells and BRCA2^−/− cells were obtained from Dr. Samuel Aparicio (British Columbia Cancer Research Centre). PEO1 and PEO4 cells were obtained from Dr. Sharon Cantor (University of Massachusetts) and these cell lines were cultured under the same conditions as previously published. Sakai et al., Functional restoration of BRCA2 protein by secondary BRCA2 mutations in BRCA2-mutated ovarian carcinoma, Cancer Res. 2009; 69 (16):6381-6; Konishi et al., Mutation of a single allele of the cancer susceptibility gene BRCA1 leads to genomic instability in human breast epithelial cells, Proc. Natl. Acad. Sci. 2011; 108 (43):17773-8; Xu et al., CX-5461 is a DNA G-quadruplex stabilizer with selective lethality in BRCA1/2 deficient tumours, Nature Communications 2017; 8:14432, all of which are hereby incorporated by reference.
(§2) Cells were plated and treated with the indicated drugs in 96-well plates for 5 days. Cell viability was measured using CellTiter 96 AQueous one solution (MTS) cell proliferation assay purchased from Promega, and IC50 values were calculated using GraphPad Prism 6 Software.

Raji/COMPOUND IR cells = test: as above; type: cell-based, human
Experimental: as §1, §2

[2] = tested on: PEO4 and PEO1 ovarian cancer cell lines; test: Sensitivity of BRCA2-proficient and -deficient cells; type: cell-based; details: FIG. 3D
Experimental: as §2
(§3) The finding that COMPOUND I produced DNA damage led to the investigation of whether cells deficient in homologous recombination were hypersensitive to this drug. The hypothesis that there would be synthetic lethality between COMPOUND I and BRCA1 deficiency using isogenic pairs of BRCA1-proficient and -deficient human cell lines was tested. […] The conclusion that BRCA1-deficient cells are hypersensitive to COMPOUND I was further supported by the results obtained in MCF7 E7 cells in which BRCA1 expression is stably knocked down by the expression of an shRNAi. […] Whether BRCA2-deficient cells are more sensitive to COMPOUND I was tested using the BRCA2-proficient and BRCA2-deficient ovarian cancer cell lines, PEO4 and PEO1, respectively. PEO1 is BRCA2-deficient and sensitive to cisplatin and a poly(ADP-ribose) polymerase inhibitor AG14361. PEO4 was derived from ascites at the time of relapse with cisplatin resistance and contains a secondary mutation that restores BRCA2 function. […] Thus, loss of either BRCA1 or BRCA2 function renders malignant cells hypersensitive to COMPOUND I.

[3] = tested on: hTERT-IMEC BRCA1 knock-in clone; test: Sensitivity of BRCA1-proficient and -deficient isogenic clones; type: cell-based, human; details: FIG. 3B
Experimental: as §2, §3

[4] = tested on: MCF10A BRCA1-het #1 and #2 clones vs control; test: as above; type: cell-based, human; details: FIG. 3A
Experimental: as §2, §3

Cc1cnc(CNC(=O)c2c(=O)c3ccc(N4CCCN(C)CC4)nc3n3c2sc2ccccc23)cn1 [CX-5461]
stabilization of G4 sequences (ΔT1/2) [1]: potent stabilizer of all G4 sequences tested

COc1ccc2c3c([nH]c2c1)[C@H](CC(C)C)N1C(=O)[C@H](CCC(=O)OC(C)(C)C)NC(=O)[C@@H]1C3 [Ko143, reference compound]
toxicity of Ko143 alone (Raji cells): not toxic | toxicity of Ko143 alone (Raji/COMPOUND IR cells; concentrations up to 300 nM, FIG. 5C): not toxic

C[n+]1ccc(-c2c3nc(c(-c4cc[n+](C)cc4)c4ccc([nH]4)c(-c4cc[n+](C)cc4)c4ccc([nH]4)c(-c4cc[n+](C)cc4)c4nc2C=C4)C=C3)cc1 [TMPyP4]
stabilization of G4 sequences (ΔT1/2) [1]: stabilized all G4 motifs except the G4 of the KIT gene promoter

N.N.O=C([O-])C1(C(=O)[O-])CCC1.[Pt+2] [carboplatin, reference compound]
sensitivity of Raji/COMPOUND IR cells relative to Raji (Raji/COMPOUND IR cells): significantly cross-resistant

COc1cc([C@@H]2c3cc4c(cc3[C@@H](O[C@@H]3O[C@@H]5CO[C@@H](C)O[C@H]5[C@H](O)[C@H]3O)[C@H]3COC(=O)[C@H]23)OCO4)cc(OC)c1O [etoposide, reference compound]
sensitivity of Raji/COMPOUND IR cells relative to Raji (Raji/COMPOUND IR cells): hypersensitive

O=C(c1cc(Cc2n[nH]c(=O)c3ccccc23)ccc1F)N1CCN(C(=O)C2CC2)CC1 [olaparib, reference compound]
effect of restoration of BRCA2 function (PEO4 vs PEO1) [2]: increased resistance | sensitivity of BRCA1 2-bp knock-in clone [3]: hypersensitive to both olaparib and COMPOUND I | sensitivity of BRCA1-het knockin clones vs control [4]: more sensitive to olaparib

CC[C@@]1(O)C(=O)OCc2c1cc1n(c2=O)Cc2cc3c(CN(C)C)c(O)ccc3nc2-1 [topotecan, reference compound]
cross-resistance of Raji/COMPOUND IR cells (Raji/COMPOUND IR cells; vs Raji): 3 fold | effect of Ko143 on topotecan resistance (Raji/COMPOUND IR cells; with Ko143, FIG. 5E): reversed this resistance completely
